Inhibition and fold change (FC) data for three compounds are collected here from ChEMBL document CHEMBL5653631, “A Potent and Selective ULK1 Inhibitor Suppresses Autophagy and Sensitizes Cancer Cells to Nutrient Stress” (iScience, 2018).

Experiment [1] deals with T1, Tribbles homolog 2 (Homo sapiens) (UniProt Q92519).
T1 sequence (whole entry): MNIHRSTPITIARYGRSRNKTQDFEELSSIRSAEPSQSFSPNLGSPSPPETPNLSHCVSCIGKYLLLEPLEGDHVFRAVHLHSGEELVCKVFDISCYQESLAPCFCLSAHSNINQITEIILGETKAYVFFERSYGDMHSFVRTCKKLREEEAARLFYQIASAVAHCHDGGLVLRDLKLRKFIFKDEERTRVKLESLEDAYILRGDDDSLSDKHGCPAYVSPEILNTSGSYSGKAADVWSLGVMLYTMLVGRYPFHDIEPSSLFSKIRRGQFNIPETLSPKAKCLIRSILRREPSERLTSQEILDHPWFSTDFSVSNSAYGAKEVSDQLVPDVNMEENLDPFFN
The experiment can be described thus: Inhibition of human recombinant Trb2 at 40 nM in presence of ATP by radiometric assay relative to control.

In experiment [2] the target is Serine/threonine-protein kinase 26 (Homo sapiens) (UniProt Q9P289). The experiment can be described thus: Inhibition of human recombinant MST4 at 40 nM related to control ULK1.
Sequence of Serine/threonine-protein kinase 26 (Homo sapiens) (Q9P289 2-416 limits assumed): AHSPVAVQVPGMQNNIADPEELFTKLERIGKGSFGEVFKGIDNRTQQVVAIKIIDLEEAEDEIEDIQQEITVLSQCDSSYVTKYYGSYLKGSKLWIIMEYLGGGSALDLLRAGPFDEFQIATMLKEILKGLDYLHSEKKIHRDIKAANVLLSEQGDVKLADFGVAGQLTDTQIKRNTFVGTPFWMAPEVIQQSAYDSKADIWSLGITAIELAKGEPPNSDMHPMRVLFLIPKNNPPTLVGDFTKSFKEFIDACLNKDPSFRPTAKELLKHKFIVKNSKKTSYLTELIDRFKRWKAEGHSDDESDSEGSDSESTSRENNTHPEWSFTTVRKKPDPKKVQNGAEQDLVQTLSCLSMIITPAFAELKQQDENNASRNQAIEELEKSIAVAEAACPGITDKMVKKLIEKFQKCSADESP
The target in experiment [3] is T2, Dual specificity protein kinase TTK (Homo sapiens) (UniProt P33981).
T2 sequence (whole entry): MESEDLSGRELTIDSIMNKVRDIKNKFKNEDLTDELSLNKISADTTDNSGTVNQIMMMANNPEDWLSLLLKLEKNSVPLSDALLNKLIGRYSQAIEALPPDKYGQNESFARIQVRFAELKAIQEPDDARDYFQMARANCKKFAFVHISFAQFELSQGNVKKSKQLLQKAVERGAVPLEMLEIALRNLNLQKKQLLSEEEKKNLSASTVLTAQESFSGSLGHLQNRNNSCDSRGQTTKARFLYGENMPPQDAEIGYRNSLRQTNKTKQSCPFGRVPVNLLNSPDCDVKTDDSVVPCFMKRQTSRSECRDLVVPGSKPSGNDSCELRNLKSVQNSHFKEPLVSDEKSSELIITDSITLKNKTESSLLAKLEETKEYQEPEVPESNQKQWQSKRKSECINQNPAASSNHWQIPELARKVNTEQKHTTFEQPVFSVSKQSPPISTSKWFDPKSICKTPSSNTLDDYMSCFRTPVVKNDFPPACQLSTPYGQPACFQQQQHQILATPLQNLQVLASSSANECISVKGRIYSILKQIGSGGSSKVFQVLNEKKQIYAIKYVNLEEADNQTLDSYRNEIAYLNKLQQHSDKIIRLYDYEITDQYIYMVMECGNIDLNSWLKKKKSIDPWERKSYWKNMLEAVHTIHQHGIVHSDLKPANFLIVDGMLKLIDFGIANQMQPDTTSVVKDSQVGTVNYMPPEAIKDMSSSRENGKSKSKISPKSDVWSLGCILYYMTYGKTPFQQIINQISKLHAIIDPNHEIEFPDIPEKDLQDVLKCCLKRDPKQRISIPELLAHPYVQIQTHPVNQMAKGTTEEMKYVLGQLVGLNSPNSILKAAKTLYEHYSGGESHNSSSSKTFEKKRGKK
The experiment is described as follows: Inhibition of human recombinant TTK at 40 nM related to control ULK1.

The target of experiment [4] is Ribosomal protein S6 kinase alpha-2 (Homo sapiens) (UniProt Q15349). The experiment can be described thus: Inhibition of human recombinant RSK3 at 40 nM related to control ULK1.
Sequence of Ribosomal protein S6 kinase alpha-2 (Homo sapiens) (Q15349 whole entry): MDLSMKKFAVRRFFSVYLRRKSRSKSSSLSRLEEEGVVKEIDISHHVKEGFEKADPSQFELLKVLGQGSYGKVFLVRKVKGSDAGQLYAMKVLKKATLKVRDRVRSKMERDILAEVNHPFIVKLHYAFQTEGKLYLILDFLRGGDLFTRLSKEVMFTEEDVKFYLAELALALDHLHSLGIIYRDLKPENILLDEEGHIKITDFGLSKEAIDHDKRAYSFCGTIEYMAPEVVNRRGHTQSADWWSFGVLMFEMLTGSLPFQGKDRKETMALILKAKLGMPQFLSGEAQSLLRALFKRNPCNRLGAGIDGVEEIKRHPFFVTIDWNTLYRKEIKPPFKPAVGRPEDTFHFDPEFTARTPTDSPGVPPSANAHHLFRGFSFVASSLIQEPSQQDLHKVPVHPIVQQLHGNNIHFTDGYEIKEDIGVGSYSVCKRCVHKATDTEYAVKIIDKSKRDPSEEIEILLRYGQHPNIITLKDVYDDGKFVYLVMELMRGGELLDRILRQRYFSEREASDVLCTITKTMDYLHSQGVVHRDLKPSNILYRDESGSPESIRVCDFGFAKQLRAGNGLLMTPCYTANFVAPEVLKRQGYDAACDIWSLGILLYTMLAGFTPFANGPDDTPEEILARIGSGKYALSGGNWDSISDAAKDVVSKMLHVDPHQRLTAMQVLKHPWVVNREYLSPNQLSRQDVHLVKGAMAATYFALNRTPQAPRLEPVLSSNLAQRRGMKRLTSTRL
Experiment [5] deals with Glycogen synthase kinase-3 beta (Homo sapiens) (UniProt P49841). The experiment can be described thus: Inhibition of human recombinant GSK3B at 500 nM related to control ULK1.
Sequence of Glycogen synthase kinase-3 beta (Homo sapiens) (P49841 whole entry, looked up): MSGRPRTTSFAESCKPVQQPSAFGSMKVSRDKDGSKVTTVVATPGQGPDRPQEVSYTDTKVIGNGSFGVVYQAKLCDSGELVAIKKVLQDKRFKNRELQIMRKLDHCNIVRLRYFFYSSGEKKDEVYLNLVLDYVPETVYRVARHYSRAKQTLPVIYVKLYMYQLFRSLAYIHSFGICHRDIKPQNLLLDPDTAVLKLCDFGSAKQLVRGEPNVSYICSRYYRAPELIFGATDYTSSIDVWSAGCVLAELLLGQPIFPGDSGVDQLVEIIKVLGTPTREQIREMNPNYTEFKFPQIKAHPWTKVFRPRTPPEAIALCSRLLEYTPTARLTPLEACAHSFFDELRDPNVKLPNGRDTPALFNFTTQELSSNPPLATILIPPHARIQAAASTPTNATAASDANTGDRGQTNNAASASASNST
The target of experiment [6] is T3, MAP kinase-activated protein kinase 5 (Homo sapiens) (UniProt Q8IW41).
T3 sequence (whole entry): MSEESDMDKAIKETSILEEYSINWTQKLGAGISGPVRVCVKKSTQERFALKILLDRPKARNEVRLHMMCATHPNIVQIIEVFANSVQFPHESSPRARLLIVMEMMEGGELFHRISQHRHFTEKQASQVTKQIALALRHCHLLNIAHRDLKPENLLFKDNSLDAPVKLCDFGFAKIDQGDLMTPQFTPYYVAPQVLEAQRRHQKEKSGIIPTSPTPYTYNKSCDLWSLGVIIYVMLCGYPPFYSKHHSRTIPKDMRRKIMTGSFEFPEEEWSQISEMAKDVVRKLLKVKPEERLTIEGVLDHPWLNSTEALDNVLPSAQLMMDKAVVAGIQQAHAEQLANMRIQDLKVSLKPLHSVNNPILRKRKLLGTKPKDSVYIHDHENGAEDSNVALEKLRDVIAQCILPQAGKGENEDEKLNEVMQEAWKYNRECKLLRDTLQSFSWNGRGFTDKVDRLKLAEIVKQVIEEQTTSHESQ
The experiment is described as follows: Inhibition of human recombinant MAPKAPK5 at 500 nM related to control ULK1.

The target in experiment [7] is Homeodomain-interacting protein kinase 3 (Homo sapiens) (UniProt Q9H422). The experiment is described as follows: Inhibition of human recombinant HIPK3 at 15 nM in presence of ATP by radiometric assay relative to control.
Sequence of Homeodomain-interacting protein kinase 3 (Homo sapiens) (Q9H422 whole entry, looked up): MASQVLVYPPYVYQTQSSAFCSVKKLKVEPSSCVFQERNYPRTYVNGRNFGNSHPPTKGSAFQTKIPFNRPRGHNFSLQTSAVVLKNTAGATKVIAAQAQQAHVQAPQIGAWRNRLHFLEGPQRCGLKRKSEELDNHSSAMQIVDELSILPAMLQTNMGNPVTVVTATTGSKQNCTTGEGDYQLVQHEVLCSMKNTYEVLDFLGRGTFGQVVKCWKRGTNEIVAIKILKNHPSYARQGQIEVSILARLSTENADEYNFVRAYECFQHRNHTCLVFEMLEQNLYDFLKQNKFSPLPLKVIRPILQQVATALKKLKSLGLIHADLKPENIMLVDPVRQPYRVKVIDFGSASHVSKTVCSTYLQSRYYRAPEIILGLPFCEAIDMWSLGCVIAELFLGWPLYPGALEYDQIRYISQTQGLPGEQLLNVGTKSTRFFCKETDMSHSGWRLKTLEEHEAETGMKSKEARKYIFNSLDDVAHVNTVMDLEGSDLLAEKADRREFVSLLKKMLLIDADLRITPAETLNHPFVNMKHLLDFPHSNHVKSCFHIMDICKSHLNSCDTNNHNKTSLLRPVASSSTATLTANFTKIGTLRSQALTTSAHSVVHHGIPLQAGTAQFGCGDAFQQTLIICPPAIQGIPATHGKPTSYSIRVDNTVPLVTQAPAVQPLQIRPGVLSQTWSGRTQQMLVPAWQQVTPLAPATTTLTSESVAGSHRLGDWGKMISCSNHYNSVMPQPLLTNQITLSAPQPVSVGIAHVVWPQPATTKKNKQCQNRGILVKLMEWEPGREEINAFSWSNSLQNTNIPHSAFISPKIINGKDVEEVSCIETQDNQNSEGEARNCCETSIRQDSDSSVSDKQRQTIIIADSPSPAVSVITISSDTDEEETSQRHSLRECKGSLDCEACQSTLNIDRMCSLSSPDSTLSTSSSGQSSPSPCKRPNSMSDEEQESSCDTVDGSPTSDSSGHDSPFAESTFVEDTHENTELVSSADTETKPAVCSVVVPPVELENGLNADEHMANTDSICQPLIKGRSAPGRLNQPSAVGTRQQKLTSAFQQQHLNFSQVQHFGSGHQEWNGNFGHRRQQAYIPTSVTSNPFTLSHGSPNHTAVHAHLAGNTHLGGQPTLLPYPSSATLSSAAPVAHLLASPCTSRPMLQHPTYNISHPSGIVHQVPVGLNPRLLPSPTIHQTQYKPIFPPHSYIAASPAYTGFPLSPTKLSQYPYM
For experiment [8], the target named is Calcium/calmodulin-dependent protein kinase type 1D (Homo sapiens) (UniProt Q8IU85). The experiment is described as follows: Inhibition of human recombinant CaMK1d at 15 nM in presence of ATP by radiometric assay relative to control.
Sequence of Calcium/calmodulin-dependent protein kinase type 1D (Homo sapiens) (Q8IU85 whole entry, looked up): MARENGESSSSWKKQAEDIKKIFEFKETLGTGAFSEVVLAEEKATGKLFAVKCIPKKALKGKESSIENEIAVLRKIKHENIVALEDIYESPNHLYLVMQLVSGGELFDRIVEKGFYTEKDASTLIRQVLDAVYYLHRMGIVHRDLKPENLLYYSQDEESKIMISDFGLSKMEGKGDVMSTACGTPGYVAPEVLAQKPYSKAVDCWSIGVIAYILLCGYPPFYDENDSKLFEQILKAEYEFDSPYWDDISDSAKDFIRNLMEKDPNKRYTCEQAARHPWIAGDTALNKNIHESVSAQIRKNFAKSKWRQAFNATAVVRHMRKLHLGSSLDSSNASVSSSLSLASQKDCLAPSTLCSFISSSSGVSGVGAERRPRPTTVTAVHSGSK

Structures are written as SMILES.

As to `O=C(N[C@@H](C1CC1)C(F)(F)F)c1cc(-c2cnn3cc(-c4ccc(F)cc4)cnc23)cs1`, in experiment [1], the inhibition (as a rule, the drop in the measured response relative to a control, in per cent) came to 34%. Also, the fold change (FC) in experiment [2] was found to be 0; in experiment [3] it was 0.45; in experiment [4], 0.
For the compound `CNC(=O)c1ccccc1Oc1nc(Nc2cc(OC)c(OC)c(OC)c2)ncc1Br`, the fold change (FC) in experiment [5] and in experiment [6] was 0 each time.
As to `CC(C)[C@H](NC(=O)c1cc(-c2cnn3cc(-c4ccc(OCCN5CCCCC5)cc4)cnc23)cs1)C(F)(F)F`, the inhibition in experiment [7] and in experiment [8] was 0% throughout.
